Patent US20240270821A1, “GIP/GLP1/GCG TRI-RECEPTOR AGONISTS AND USES THEREOF” (priority 2023, published 2024)
Starred links: 1 amine or outer side, 2 acyl side, 3 side chain; linkers in the order of their positions; H or OH if unused. Non-standard residues stand in square brackets, D forms with d. Groups on a side chain read outwards from the residue. *: point of attachment. C20 diacid = O=C(O)CCCCCCCCCCCCCCCCCCC(=O)*; C18 diacid = O=C(O)CCCCCCCCCCCCCCCCC(=O)*; γGlu = O=C(O)[C@H](CCC(=O)[*:2])N[*:1]; αMe4Pal = C[C@](N)(Cc1ccncc1)C(=O)O; αMeY = C[C@](N)(Cc1ccc(O)cc1)C(=O)O; 4Pal = N[C@@H](Cc1ccncc1)C(=O)O; αMeL = CC(C)C[C@](C)(N)C(=O)O; AEEA = NCCOCCOCC(=O)O; Aib = CC(C)(N)C(=O)O

Assays:
Type in all cases: cell-based
hGcgR = hGcgR (Homo sapiens, UniProt P47871); assay: Functional cAMP activation in the presence of 0.1% casein (no HSA); conditions: in the presence of 0.1% casein (no HSA); geometric mean; read-out: Relative cAMP EC50, hGcgR;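 also: intracellular cAMP rise after 30 min at 37 °C, read by HTRF against a cAMP standard curve, scaled from buffer only (0%) to maximal control ligand response (100%)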
hGcgR, sequence (P47871 26-477): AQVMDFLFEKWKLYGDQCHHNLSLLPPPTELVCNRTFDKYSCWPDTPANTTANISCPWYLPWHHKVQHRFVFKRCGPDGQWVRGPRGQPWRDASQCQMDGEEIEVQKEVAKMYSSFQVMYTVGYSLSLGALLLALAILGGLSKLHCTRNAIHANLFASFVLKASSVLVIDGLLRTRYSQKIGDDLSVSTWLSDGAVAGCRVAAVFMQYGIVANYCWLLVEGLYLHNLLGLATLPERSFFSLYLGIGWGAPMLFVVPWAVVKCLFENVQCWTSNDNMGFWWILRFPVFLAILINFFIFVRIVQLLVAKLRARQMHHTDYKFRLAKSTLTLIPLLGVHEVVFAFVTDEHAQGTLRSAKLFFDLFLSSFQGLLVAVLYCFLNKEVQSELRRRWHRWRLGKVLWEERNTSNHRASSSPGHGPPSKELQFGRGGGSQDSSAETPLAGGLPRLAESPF

hGLP-1R [1] = target: T1, hGLP-1R (Homo sapiens, UniProt P43220); assay: Functional cAMP activity in the presence of 1% HSA; conditions: read-out: cAMP Rel EC50, hGLP-1R
T1 sequence (P43220 24-463): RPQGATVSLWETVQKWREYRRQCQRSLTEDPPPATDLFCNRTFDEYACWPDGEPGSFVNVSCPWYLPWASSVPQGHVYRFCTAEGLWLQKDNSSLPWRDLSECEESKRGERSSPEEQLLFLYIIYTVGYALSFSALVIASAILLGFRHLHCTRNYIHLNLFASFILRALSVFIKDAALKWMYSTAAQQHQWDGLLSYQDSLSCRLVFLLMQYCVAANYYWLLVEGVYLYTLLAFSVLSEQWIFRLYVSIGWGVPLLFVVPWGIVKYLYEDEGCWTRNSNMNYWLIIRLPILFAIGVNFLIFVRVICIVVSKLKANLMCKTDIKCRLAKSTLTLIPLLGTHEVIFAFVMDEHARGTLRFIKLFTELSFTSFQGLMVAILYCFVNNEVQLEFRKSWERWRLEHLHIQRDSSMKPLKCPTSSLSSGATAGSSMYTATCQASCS

hGLP-1R [2] = target: T1, hGLP-1R; assay: Functional cAMP activation in the presence of 0.1% casein (no HSA); conditions: in the presence of 0.1% casein (no HSA); geometric mean; read-out: Relative cAMP EC50, hGLP-1R;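 as to Relative cAMP EC50, hGIPR: intracellular cAMP rise after 30 min at 37 °C read by HTRF against a standard curve, scaled between buffer alone (0%) and top control ligand concentration (100%), four-parameter fit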;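 as to Relative cAMP EC50, hGLP-1R: intracellular cAMP rise after 30 min at 37 °C read by HTRF, normalized between buffer only (0%) and maximal control ligand (100%), four-parameter variable-slope fit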
hGIPR [3] = target: T2, hGIPR (Homo sapiens, UniProt P48546); assay: as above; conditions: in the presence of 0.1% casein (no HSA); geometric mean; read-out: Relative cAMP EC50, hGIPR;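 also: intracellular cAMP rise after 30 min at 37 °C read by HTRF against a standard curve, scaled between buffer alone (0%) and top control ligand concentration (100%), four-parameter fit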
T2 sequence (P48546 22-466): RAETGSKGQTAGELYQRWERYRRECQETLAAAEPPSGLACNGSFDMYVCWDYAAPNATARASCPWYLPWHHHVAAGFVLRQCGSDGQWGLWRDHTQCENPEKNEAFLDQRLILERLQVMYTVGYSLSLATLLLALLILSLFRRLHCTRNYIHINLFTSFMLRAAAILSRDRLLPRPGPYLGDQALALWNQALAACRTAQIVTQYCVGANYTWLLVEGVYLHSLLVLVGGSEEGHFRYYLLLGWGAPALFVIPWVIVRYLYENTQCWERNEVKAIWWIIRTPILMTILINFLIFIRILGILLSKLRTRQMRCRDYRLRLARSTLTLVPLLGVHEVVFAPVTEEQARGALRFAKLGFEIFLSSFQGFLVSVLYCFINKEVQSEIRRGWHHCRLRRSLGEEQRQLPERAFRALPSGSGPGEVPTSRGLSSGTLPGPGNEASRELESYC
Procedure: After a 30-minute incubation at 37° C., the resulting increase in intracellular cAMP is quantitatively determined using the CisBio CAMP Dynamic 2 HTRF Assay Kit (62AM4PEJ). Briefly, cAMP levels within the cell are detected by adding the cAMP-d2 conjugate in cell lysis buffer followed by the antibody anti-cAMP-Eu^3+-Cryptate, also in cell lysis buffer.
Intracellular cAMP levels are determined by extrapolation using a standard curve. Dose response curves of compounds are plotted as the percentage of stimulation normalized to minimum (buffer only) and maximum (maximum concentration of each control ligand) values and analyzed using a four parameter non-linear regression fit with a variable slope (Genedata Screener 13). EC50 is the concentration of compound causing half-maximal simulation in a dose response curve. Each relative EC50 value for the Geometric mean calculation is determined from a curve fitting.

hGIPR [4] = target: T2, hGIPR; assay: Functional cAMP activity in the presence of 1% HSA; conditions: read-out: cAMP Rel EC50, hGIPR
human GcgR = human GcgR (Homo sapiens, UniProt P47871); assay: Functional cAMP activity in the presence of 1% HSA; conditions: read-out: cAMP Rel EC50, hGcgR
human GcgR, sequence (P47871 26-477): as the sequence (P47871 26-477) above

Substance | EC50 (hGcgR) | EC50 (hGLP-1R [1]) | EC50 (hGLP-1R [2]) | EC50 (hGIPR [3]) | EC50 (hGIPR [4]) | EC50 (human GcgR)
H-Y[Aib]QGTFTSDYSK[αMeL]LDKK([AEEA-γGlu-C20 diacid])AQQAFIEYLIAGGPSSGAPPPSSE-NH2 [Example 322] | 5.41 nM | 135 nM | 0.394 nM | 0.264 nM | 89.3 nM | 2620 nM
H-Y[Aib]QGTFTSDYSK[αMeL]LDKK([AEEA-γGlu-C20 diacid])AQQAFIEYLIAGGPSSGEPPPSGD-NH2 [Example 337] | 5.95 nM | 272 nM | 0.686 nM | 0.332 nM | 99.1 nM | 2950 nM
H-Y[Aib]QGTFTSDYSK[αMeL]LDKK([AEEA-γGlu-C20 diacid])AQQAFIEYLLAGGPSSGEPPPSGE-NH2 [Example 344] | 9.05 nM | 523 nM | 2.56 nM | 0.406 nM | 70.7 nM | 1440 nM
H-Y[Aib]QGTFTSDYSK[αMeL]LDKK([AEEA-γGlu-C20 diacid])AQQAFIQWLIEGGPSSGEPPPSEG-NH2 [Example 314] | 3.7 nM | 100 nM | 0.274 nM | 0.345 nM | 65.9 nM | 1030 nM
H-Y[Aib]QGTFTSDYSK[αMeL]LDKK([AEEA-γGlu-C20 diacid])AQQAFVQWLIE[dA]GPSSGEPPPSEG-NH2 [Example 342] | 10.2 nM | 62 nM | 0.419 nM | 0.347 nM | 71.3 nM | 2130 nM
H-Y[Aib]QGTFTSDYSK[αMeL]LDKK([AEEA-γGlu-C20 diacid])AQ[Aib]AFVQWLLEGGPSSGEPPPSEG-NH2 [Example 343] | 6.83 nM | 178 nM | 1.31 nM | 0.184 nM | 16.7 nM | 475 nM
H-Y[Aib]QGTFTSD[4Pal]SK[αMeL]LDKK([AEEA-γGlu-C18 diacid])AQ[Aib]AFIEYLIA[Aib]GESSGEPPPSGS-NH2 [Example 287] | 2.53 nM | 562 nM | 4.25 nM | 0.0633 nM | 9.94 nM | 291 nM
H-Y[Aib]QGTFTSD[4Pal]SK[αMeL]LDKK([AEEA-γGlu-C18 diacid])AQ[Aib]AFIEYLIEGGPSSGAPPPSGS-NH2 [Example 908] | 8.11 nM | 174 nM | 1.2 nM | 0.246 nM | 26.7 nM | 980 nM
H-Y[Aib]QGTFTSD[4Pal]SK[αMeL]LDKK([AEEA-γGlu-C18 diacid])AQ[Aib]AFIEYLIE[Aib]GPSSGAPPPSGS-NH2 [Example 801] | 5.51 nM | 133 nM | 0.938 nM | 0.147 nM | 18.1 nM | 1200 nM
H-Y[Aib]QGTFTSD[4Pal]SK[αMeL]LDKK([AEEA-γGlu-C18 diacid])AQ[Aib]AFIEYLIE[Aib]GPSSGAPPPSGSE-NH2 [Example 901] | 9.09 nM | 193 nM | 1.26 nM | 0.17 nM | 34 nM | 1150 nM
H-Y[Aib]QGTFTSD[4Pal]SK[αMeL]LDKK([AEEA-γGlu-C18 diacid])AQ[Aib]AFIEYLIE[Aib]GPSSGAPPPSGSEE-NH2 [Example 902] | 15.9 nM | 232 nM | 2.58 nM | 0.19 nM | 28.5 nM | 1360 nM
H-Y[Aib]QGTFTSD[4Pal]SK[αMeL]LDKK([AEEA-γGlu-C18 diacid])AQ[Aib]AFIEYLIE[Aib]GPSSGAPPPSGSEEE-NH2 [Example 903] | 12.9 nM | 387 nM | 2.7 nM | 0.277 nM | 31.2 nM | 1630 nM
H-Y[Aib]QGTFTSD[4Pal]SK[αMeL]LDKK([AEEA-γGlu-C18 diacid])AQ[Aib]AFIEYLIE[dA]GESSGEPPPSGS-NH2 [Example 284] | 9.21 nM | 271 nM | 1.54 nM | 0.347 nM | 59.8 nM | 1530 nM
H-Y[Aib]QGTFTSD[4Pal]SK[αMeL]LDKK([AEEA-γGlu-C18 diacid])AQ[Aib]AFIE[αMe4Pal]LIE[Aib]GPSSGAPPPSGS-NH2 [Example 914] | 10.6 nM | 91.7 nM | 0.888 nM | 0.0582 nM | 5.94 nM | 983 nM
H-Y[Aib]QGTFTSD[4Pal]SK[αMeL]LDKK([AEEA-γGlu-C18 diacid])AQ[αMe4Pal]AFIEYLIE[Aib]GPSSGAPPPSGS-NH2 [Example 915] | 0.882 nM | 226 nM | 1.5 nM | 0.0988 nM | 15.3 nM | 174 nM
H-Y[Aib]QGTFTSD[4Pal]SK[αMeL]LDKK([AEEA-γGlu-C18 diacid])AQ[αMe4Pal]AFIE[αMe4Pal]LIE[Aib]GPSSGAPPPSGS-NH2 [Example 916] | 1.09 nM | 166 nM | 1.38 nM | 0.0715 nM | 4.78 nM | 158 nM
H-Y[Aib]QGTFTSD[4Pal]SK[αMeL]LDKK([γGlu-γGlu-C18 diacid])AQ[Aib]AFIEYLIE[Aib]GPSSGAPPPSGS-NH2 [Example 907] | 5.79 nM | 123 nM | 1.15 nM | 0.103 nM | 8.86 nM | 1210 nM
H-Y[Aib]QGTFTSD[4Pal]SK[αMeL]LDKK([γGlu-γGlu-C18 diacid])AQ[Aib]AFIEYLIE[Aib]GPSSGAPPPSGSE-NH2 [Example 904] | 9.88 nM | 198 nM | 1.94 nM | 0.194 nM | 15 nM | 1330 nM
H-Y[Aib]QGTFTSD[4Pal]SK[αMeL]LDKK([γGlu-γGlu-C18 diacid])AQ[Aib]AFIEYLIE[Aib]GPSSGAPPPSGSEE-NH2 [Example 905] | 12.3 nM | 215 nM | 2.52 nM | 0.217 nM | 10.4 nM | 1390 nM
H-Y[Aib]QGTFTSD[4Pal]SK[αMeL]LDKK([γGlu-γGlu-C18 diacid])AQ[Aib]AFIEYLIE[Aib]GPSSGAPPPSGSEEE-NH2 [Example 906] | 14.7 nM | 236 nM | 2.48 nM | 0.212 nM | 15.4 nM | 1170 nM
H-Y[Aib]QGTFTSD[4Pal]SQ[αMeL]LDKK([AEEA-AEEA-γGlu-C18 diacid])AQ[αMe4Pal]AFIEYLIE[Aib]GPSSGAPPPSGS-NH2 [Example 816] | 6.57 nM | 310 nM | 2.69 nM | 0.297 nM | 15.9 nM | 1100 nM
H-Y[Aib]QGTFTSD[4Pal]SQ[αMeL]LDKK([AEEA-γGlu-C18 diacid])AQ[Aib]AFIEYLLE[dA]GPSS[Aib]APPPSGT-NH2 [Example 824] | 7.92 nM | 343 nM | 2.43 nM | 0.123 nM | 28.9 nM | 1110 nM
H-Y[Aib]QGTFTSD[4Pal]SQ[αMeL]LDKK([AEEA-γGlu-C18 diacid])AQ[Aib]AFIE[αMeY]LIEGGPSSGAPPPEGS-NH2 [Example 853] | 26.5 nM | 102 nM | 0.507 nM | 0.224 nM | 32.4 nM | 4500 nM
H-Y[Aib]QGTFTSD[4Pal]SQ[αMeL]LDKK([AEEA-γGlu-C18 diacid])AQ[Aib]AFIE[αMeY]LLEGGPSSGAPPPSGS-NH2 [Example 910] | 9.76 nM | 239 nM | 1.49 nM | 0.111 nM | 25.7 nM | 2640 nM
H-Y[Aib]QGTFTSD[4Pal]SQ[αMeL]LDKK([AEEA-γGlu-C18 diacid])AQ[αMe4Pal]AFIEWLIEGGPSSGAPPPSGS-NH2 [Example 830] | 3.21 nM | 180 nM | 0.791 nM | 0.132 nM | 44.8 nM | 809 nM
H-Y[Aib]QGTFTSD[4Pal]SQ[αMeL]LDKK([AEEA-γGlu-C18 diacid])AQ[αMe4Pal]AFIEWLIEGGPSSGAPPPSGT-NH2 [Example 831] | 4.63 nM | 237 nM | 0.672 nM | 0.604 nM | 38.2 nM | 1450 nM
H-Y[Aib]QGTFTSD[4Pal]SQ[αMeL]LDKK([AEEA-γGlu-C18 diacid])AQ[αMe4Pal]AFIEYLIAGGPSSGAPPPSGSEE-NH2 [Example 1029] | 5.35 nM | 170 nM | 1.79 nM | 0.163 nM | 22.3 nM | 511 nM
H-Y[Aib]QGTFTSD[4Pal]SQ[αMeL]LDKK([AEEA-γGlu-C18 diacid])AQ[αMe4Pal]AFIEYLIEGGPSSGAPPPSGS-NH2 [Example 826] | 5.59 nM | 202 nM | 2.75 nM | 0.581 nM | 81.6 nM | 441 nM
